Where two headings read alike, the source gives them in different places. Marks after values point to notes of the source that are not given here.
Legend:
[1] = tested on: influenza A/WSN/33 virus
[2] = tested on: influenza A/WSN/33 virus; format: cell-based
[3] = tested on: influenza A virus (FluA)
[4] = tested on: A549 cells; conditions: for concentrations found non-toxic / not decreasing cell viability, up to: A549 cells, 24 h, MTS assay
[5] = in vitro; conditions: human
[6] = tested on: influenza A virus (FluA); assay: microbe, parasite or virus in culture; conditions: A549, read-out: IC50 (A549)
[7] = tested on: influenza A virus (FluA); assay: in vitro; conditions: human
[8] = tested on: Newcastle disease virus (NDV/B1); format: cell-based
[9] = tested on: vesicular stomatitis virus (VSV); format: cell-based
[10] = tested on: influenza B/Yamagata/88 virus; format: cell-based
[11] = tested on: influenza A/WSN/33 virus; assay: microbe, parasite or virus in culture; conditions: A549, 24 h
[12] = read-out: IC50 (compound concentration of 50% inhibition of viral replication)

| Compound | HTS result (luciferase signal of influenza mini-genome reporter) [2] | Inhibition of FluA (Table 5) [3] | CC10 (A549), concentration of 10% cytotoxicity ([4]; human) | CC50 [5] | IC50 [6] | selectivity ratio [7] | other results |
| --- | --- | --- | --- | --- | --- | --- | --- |
| CCCCCCCCCCCCCC(=O)O[C@@H]1[C@@H](C)[C@@]2(O)[C@@H](C=C(CO)C[C@]3(O)C(=O)C(C)=C[C@@H]23)[C@@H]2C(C)(C)[C@]12OC(C)=O [PMA, phorbol 12-myristate 13-acetate] | not originally recognized in the screen as an enhancer | – | – | – | – | – | increase of viral titer compared to untreated cells [1]: 12 fold |
| Nc1nc(-c2ccc(Cl)cc2)cs1 [A35-3] | – | none** | 11.4 µM | 165 µM | – | – | – |
| CN(Cc1ccccc1)c1nc(-c2ccc([N+](=O)[O-])cc2)cs1 [A35-1, N-methyl-4-(4-nitrophenyl)-N-(phenylmethyl)-2-thiazolamine] | – | ~75%** | 10.8 µM | 201 µM | 3.24 µM | 62 | – |
| lanatoside C | potential influenza virus inhibitors | – | – | – | – | – | decrease of viral titer compared to untreated control [1]: 95.9%; inhibition of NDV replication [8]: significantly inhibited; inhibition of VSV replication [9]: significantly inhibited; CC50 [4]: 0.21 µM; concentration that maintained at least an 80% cell viability (CC20) [4]: 0.078 µM |
| C[C@]12CC[C@H]3[C@@H](CC[C@]4(O)C[C@@H](O)CC[C@]34C=O)[C@@]1(O)CC[C@@H]2C1=CC(=O)OC1 [strophanthidin] | potential influenza virus inhibitors | – | – | – | – | – | – |
| N#Cc1cc2c(OCC(O)CN3CCN(C(c4ccccc4)c4ccccc4)CC3)cccc2[nH]1 (stereo not drawn) [SDZ-201106] | potential influenza virus inhibitors | – | – | – | – | – | SI [CC50/IC50] selective index [1]: 7; reduction in viral titer compared to untreated control [1]: 85%; IC50 [1, 12]: 4.1 µM; concentrations found non-toxic / not decreasing cell viability, up to [4]: up to 12.5 μM; reduction in viral growth/titer compared to untreated control [10]: 72% |
| CC(=O)c1c(O)c(C)c(O)c(Cc2c(O)c3c(c(C(=O)/C=C/c4ccccc4)c2O)OC(C)(C)C=C3)c1O [rottlerin] | potential influenza virus inhibitors | – | – | – | – | – | SI [CC50/IC50] selective index [1]: 39; reduction in viral titer compared to untreated control [1]: 93%; IC50 [11, 12]: 0.46 µM; IC50 ([11]; read-out: IC50 (half maximal inhibitory concentration)): 0.465 µM; concentrations found non-toxic / not decreasing cell viability, up to [4]: up to 1.28 μM; reduction in viral titer compared to untreated control [10]: 80% |
| Cc1[nH]c2ccc(-c3nnc(SCC(=O)N(C(C)C)C(C)C)o3)cc2c1C [A3-4, 2-(5-(2,3-dimethyl-1H-indol-5-yl)-1,3,4-oxadiazol-2-ylthio)-N,N-diisopropylacetamide] | – | ~87.5%** | 10.7 µM | 17.7 µM | 1.65 µM | 11 | – |
| Cc1[nH]c2ccc(-c3nnc(SCC(=O)N4CCc5ccccc54)o3)cc2c1C [A3-3, 2-(5-(2,3-dimethyl-1H-indol-5-yl)-1,3,4-oxadiazol-2-ylthio)-1-(indolin-1-yl)ethanone] | – | ~50%** | 8.5 µM | 65 µM | 8.5 µM | 8 | – |
| O=C(CSc1nnc(-c2ccncc2)o1)N1CCCC1 [A3-12] | – | ~29%** | 11.5 µM | 186 µM | – | – | – |
| COc1ccc(-c2nnc(SCC(=O)N3CCCC3)o2)cc1 [A3-8] | – | none** | 11.8 µM | 250 µM | – | – | – |
| C[C@@H]1O[C@@H](O[C@H]2C[C@@H](O)[C@]3(CO)[C@H]4[C@H](O)C[C@]5(C)[C@@H](C6=CC(=O)OC6)CC[C@]5(O)[C@@H]4CC[C@]3(O)C2)[C@H](O)[C@H](O)[C@H]1O [ouabain] | potential influenza virus inhibitors | – | – | – | – | – | decrease of viral titer compared to untreated control [1]: 99.1%; inhibition of NDV replication [8]: significantly inhibited; inhibition of VSV replication [9]: significantly inhibited; CC50 ([4]; human): 0.047 µM; concentration that maintained at least an 80% cell viability (CC20) ([4]; human): 0.02 µM |
| CN(c1ccc(O)cc1)c1nc(-c2ccc(Cl)cc2)cs1 [A35-4, 4-[[4-(4-chlorophenyl)-1,3-thiazol-2-yl](methyl)amino]phenol] | – | ~50%** | 6 µM | 30 µM | 6 µM | 5 | – |
| Cc1[nH]c2ccc(-c3nnc(SCC(=O)N4CCCCCC4)o3)cc2c1C [A3-6, 1-(azepan-1-yl)-2-(5-(2,3-dimethyl-1H-indol-5-yl)-1,3,4-oxadiazol-2-ylthio)ethanone] | – | ~87.5%** | 18.2 µM | 179 µM | 0.98 µM | 180 | – |
| O=C(CSc1nnc(-c2cc3ccccc3o2)o1)N1CCCC1 [A3-9] | – | ~29%** | 10.9 µM | 197 µM | – | – | – |
| C[C@H]1O[C@@H](O[C@H]2[C@@H](O)C[C@H](O[C@H]3[C@@H](O)C[C@H](O[C@H]4CC[C@@]5(C)[C@H](CC[C@@H]6[C@@H]5C[C@@H](O)[C@]5(C)[C@@H](C7=CC(=O)OC7)CC[C@]65O)C4)O[C@@H]3C)O[C@@H]2C)C[C@H](O)[C@@H]1O [digoxin] | potential influenza virus inhibitors | – | – | – | – | – | – |
| CN(c1nc(-c2ccccc2)cs1)C1CCS(=O)(=O)C1 (stereo not drawn) [A35-2] | – | none** | 12.2 µM | 148 µM | – | – | – |
| N/C(=N\C(=O)c1nc(Cl)c(N)nc1N)NCc1ccc(Cl)c(Cl)c1 [3′,4′-dichlorobenzamil] | – | – | – | – | – | – | efficiency of growth enhancement relative to 2′,4′-dichlorobenzamil [1]: 10 times less efficient; influenza virus growth versus untreated control [1]: boost influenza virus replication |
| CCN(CC)S(=O)(=O)c1ccc(-c2nnc(SCC(=O)N3CCCC3)o2)cc1 [A3-1] | – | ~29%** | 17.3 µM | 316 µM | – | – | – |
| O=C(CSc1nnc(-c2cccnc2)o1)N1CCCC1 [A3-11] | – | none** | 32.6 µM | 249 µM | – | – | – |
| CCN(CC)C(=O)CSc1nnc(-c2ccc3[nH]c(C)c(C)c3c2)o1 [A3-2, 2-(5-(2,3-dimethyl-1H-indol-5-yl)-1,3,4-oxadiazol-2-ylthio)-N,N-diethylacetamide] | – | ~97%** | 29 µM | 198 µM | 1.2 µM | > 165 | – |
| Cc1[nH]c2ccc(-c3nnc(SCC(=O)N4CCOCC4)o3)cc2c1C [A3-5, 2-(5-(2,3-dimethyl-1H-indol-5-yl)-1,3,4-oxadiazol-2-ylthio)-1-morpholinoethanone] | – | ~97%** | 10.2 µM | 257 µM | 0.5 µM | 514 | – |
| O=C(CSc1nnc(-c2cc3ccccc3[nH]2)o1)N1CCCC1 [A3-7] | – | ~29%** | 15.2 µM | 134 µM | – | – | – |

Reference: patent US8629283B2, “Compounds that modulate negative-sense, single-stranded RNA virus replication and uses thereof” (Icahn School of Medicine at Mount Sinai, priority 2008, dated 2014)
